Measured values taken from the supplement of paper PMC11061612.

Experiments:
D-263MG (Glioblastoma) = assay: Bliss excess, mean over the matrix (fraction); higher = more synergy
Outline: (§1)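 After 24 hours at 37°C and 5% CO2 in 1536-well plates, cells in DMEM/F12 or RPMI plus 10% FBS received two-drug dose matrices for 72 hours. Viability came from CellTiter-Glo 2.0 luminescence and was scaled as inhibition, anchored at 0 by vehicle wells and at 1 by blank wells. Combination Emax is taken as the second-highest inhibition in the matrix, and Bliss excess as the observed combination effect less EA + EB − EA·EB, with EA and EB the single-agent effects.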

[1] = system: MIA-PaCa-2 (Pancreatic Carcinoma); assay: as above
Outline: as §1

[2] = system: EoL-1-cell (Acute Myeloid Leukemia); assay: as above
Outline: as §1

UACC-62 (Melanoma) = assay: as above
Outline: as §1

TK10 (Kidney Carcinoma) = assay: as above
Outline: as §1

[3] = system: PANC-04-03 (Pancreatic Carcinoma); assay: as above
Outline: as §1

[4] = system: EFM-19 (Breast Carcinoma); assay: as above
Outline: as §1

[5] = system: KARPAS-299 (T-Cell Non-Hodgkin's Lymphoma); assay: as above
Outline: as §1

[6] = system: KYSE-450 (Esophageal Squamous Cell Carcinoma); assay: as above
Outline: as §1

[7] = system: LU-65 (Non-Small Cell Lung Carcinoma); assay: as above
Outline: as §1

[8] = system: TE-1 (Esophageal Squamous Cell Carcinoma); assay: combination Emax (second highest fraction inhibited in the dose matrix, 72 h); higher = more inhibition; extreme values may be limits of the assay
Outline: as §1

[9] = system: KMOE-2 (Acute Myeloid Leukemia); assay: as above
Outline: as §1

[10] = system: HSC-4 (Oral Cavity Carcinoma); assay: as above
Outline: as §1

[11] = system: HOP-62 (Lung Adenocarcinoma); assay: as above
Outline: as §1

[12] = system: NEC8 (Other Solid Carcinomas); assay: as above
Outline: as §1

[13] = system: OSC-20 (Oral Cavity Carcinoma); assay: as above
Outline: as §1

[14] = system: SCC-15 (Oral Cavity Carcinoma); assay: as above
Outline: as §1

[15] = system: OVCAR-4 (Ovarian Carcinoma); assay: as above
Outline: as §1

PWR-1E (Non-Cancerous) = assay: as above
Outline: as §1

[16] = system: VA-ES-BJ (Other Solid Carcinomas); assay: as above
Outline: as §1
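Throughout, for Bliss excess, mean over the matrix: after 72 h of two-drug dosing.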

SMILES | Bliss excess (D-263MG (Glioblastoma)) | Bliss excess [1] | Bliss excess [2] | Bliss excess (UACC-62 (Melanoma)) | Bliss excess (TK10 (Kidney Carcinoma)) | Bliss excess [3] | Bliss excess [4] | Bliss excess [5] | Bliss excess [6] | Bliss excess [7] | combination Emax [8] | combination Emax [9] | combination Emax [10] | combination Emax [11] | combination Emax [12] | combination Emax [13] | combination Emax [14] | combination Emax [15] | combination Emax (PWR-1E (Non-Cancerous)) | combination Emax [16]
CN(CCO)CC[C@H](CSc1ccccc1)Nc1ccc(S(=O)(=O)NC(=O)c2ccc(N3CCC([C@@H](O)c4ccccc4-c4ccc(Cl)cc4)CC3)cc2)cc1S(=O)(=O)C(F)(F)F [AZD4320] + Cc1cc2ncnn2cc1Nc1ncc2c(n1)n(C1CCOCC1)c(=O)n2C [AZD7648] (first compound max 1 µM, 7x7, partner max 10 µM) | -0.0192 | -0.0636 | 0.0476 | -0.0329 | -0.014 | -0.0556 | -0.0326 | -0.0343 | -0.0383 | -0.007 | 0.38 | 0.896 | 0.129 | 0.167 | 0.159 | 0.0714 | 0.265 | 0.127 | 0.0822 | 0.174
CN(CCO)CC[C@H](CSc1ccccc1)Nc1ccc(S(=O)(=O)NC(=O)c2ccc(N3CCC([C@@H](O)c4ccccc4-c4ccc(Cl)cc4)CC3)cc2)cc1S(=O)(=O)C(F)(F)F [AZD4320] + Nc1ccn([C@@H]2O[C@H](CO)[C@@H](O)C2(F)F)c(=O)n1 [Gemcitabine] (first compound max 1 µM, 7x7, partner max 0.3 µM) | -0.0625 | -0.025 | 0.0217 | -0.006 | 0.0032 | -0.0496 | 0.0067 | 0.0251 | -0.0497 | -0.0667 | – | – | – | – | – | – | – | – | – | –
N#Cc1cnc(Nc2cc(NC[C@H]3CNCCO3)c(C(F)(F)F)cn2)cn1 [SRA737] + C=CCn1c(=O)c2cnc(Nc3ccc(N4CCN(C)CC4)cc3)nc2n1-c1cccc(C(C)(C)O)n1 [AZD1775] (first compound max 10 µM, partner max 1 µM) | 0.0096 | 0.139 | -0.0097 | 0.0048 | 0.0566 | 0.0182 | -0.044 | 0.0776 | 0.119 | 0.0233 | – | – | – | – | – | – | – | – | – | –
C[C@@H](c1ccc2nccn2c1)n1nnc2ncc(-c3cnn(C)c3)nc21 [Savolitinib] + Cc1c2c(nn1C)CSCc1cc(n(C)n1)CSc1cc(c3ccccc3c1)OCCCc1c(C(=O)O)n(C)c3c-2c(Cl)ccc13 [AZD5991] (first compound max 1 µM, 7x7, partner max 1 µM) | -0.0571 | -0.007 | 0.0703 | 0.0285 | -0.0486 | -0.0216 | -0.0236 | 0.081 | -0.0186 | -0.0437 | 0.162 | 0.113 | 0.236 | 0.154 | 0.273 | 0.137 | 0.186 | 0.138 | 0.186 | 0.218
CN(CCO)CC[C@H](CSc1ccccc1)Nc1ccc(S(=O)(=O)NC(=O)c2ccc(N3CCC([C@@H](O)c4ccccc4-c4ccc(Cl)cc4)CC3)cc2)cc1S(=O)(=O)C(F)(F)F [AZD4320] + C[C@@H](Nc1cc(F)cc(F)c1)c1cc(C(=O)N(C)C)cc2c(=O)cc(N3CCOCC3)oc12 [AZD8186] (first compound max 1 µM, 7x7, partner max 3 µM) | 0.0288 | -0.0084 | 0.0255 | 0.102 | -0.032 | 0.0202 | -0.0426 | 0.044 | -0.07 | -0.0216 | 0.532 | 0.887 | 0.852 | 0.602 | 0.341 | 0.36 | 0.447 | 0.322 | 0.592 | 0.296
Cc1cc2ncnn2cc1Nc1ncc2c(n1)n(C1CCOCC1)c(=O)n2C [AZD7648] + CN(C)CCCOc1ccc(-c2ccc3ncc4c(c3c2)n(C2CCOCC2)c(=O)n4C)cn1 [AZD0156] (first compound max 10 µM, 7x7, partner max 1 µM) | 0.005 | -0.003 | 0.0279 | 0.0247 | 0.013 | 0.0016 | -0.0815 | 0.0477 | 0.0038 | 0.0053 | 0.19 | 0.213 | 0.112 | 0.144 | 0.0719 | 0.224 | 0.292 | 0.185 | 0.363 | 0.225
CN(CCO)CC[C@H](CSc1ccccc1)Nc1ccc(S(=O)(=O)NC(=O)c2ccc(N3CCC([C@@H](O)c4ccccc4-c4ccc(Cl)cc4)CC3)cc2)cc1S(=O)(=O)C(F)(F)F [AZD4320] + Cn1cnc2c(F)c(Nc3ccc(Br)cc3Cl)c(C(=O)NOCCO)cc21 [Selumetinib] (first compound max 1 µM, 7x7, partner max 3 µM) | -0.0094 | -0.0098 | 0.0593 | -0.0035 | -0.0867 | 0.0708 | -0.102 | 0.0476 | 0.0177 | 0.0176 | 0.554 | 1 | 0.797 | 0.536 | 0.341 | 0.321 | 0.548 | 0.381 | 0.601 | 0.203
Cc1cc2ncnn2cc1Nc1ncc2c(n1)n(C1CCOCC1)c(=O)n2C [AZD7648] + C=CCn1c(=O)c2cnc(Nc3ccc(N4CCN(C)CC4)cc3)nc2n1-c1cccc(C(C)(C)O)n1 [AZD1775] (first compound max 10 µM, partner max 1 µM) | 0.0037 | -0.0459 | 0.0137 | 0.0242 | 0.0668 | 0.0135 | -0.0596 | 0.0072 | -0.03 | -0.0027 | 0.621 | 0.924 | 0.41 | 0.241 | 0.123 | 0.354 | 0.439 | 0.607 | 0.562 | 0.453
CN(CCO)CC[C@H](CSc1ccccc1)Nc1ccc(S(=O)(=O)NC(=O)c2ccc(N3CCC([C@@H](O)c4ccccc4-c4ccc(Cl)cc4)CC3)cc2)cc1S(=O)(=O)C(F)(F)F [AZD4320] + C=CCn1c(=O)c2cnc(Nc3ccc(N4CCN(C)CC4)cc3)nc2n1-c1cccc(C(C)(C)O)n1 [AZD1775] (first compound max 1 µM, partner max 1 µM) | -0.0277 | -0.0176 | -0.0146 | 0.025 | 0.0515 | -0.048 | 0.0433 | 0.0477 | -0.0535 | -0.0162 | 0.824 | 1 | 0.585 | 0.458 | 0.414 | 0.119 | 0.551 | 0.662 | 0.338 | 0.458
N#Cc1cnc(Nc2cc(NC[C@H]3CNCCO3)c(C(F)(F)F)cn2)cn1 [SRA737] + O=c1[nH]cc(F)c(=O)[nH]1 [5-Fluorouracil] (first compound max 10 µM, 7x7, partner max 20 µM) | -0.0456 | -0.0352 | -0.0084 | -0.0561 | -0.0549 | 0.0102 | 0.0189 | 0.0529 | -0.0348 | 0.0104 | – | – | – | – | – | – | – | – | – | –
CN(CCO)CC[C@H](CSc1ccccc1)Nc1ccc(S(=O)(=O)NC(=O)c2ccc(N3CCC([C@@H](O)c4ccccc4-c4ccc(Cl)cc4)CC3)cc2)cc1S(=O)(=O)C(F)(F)F [AZD4320] + CC(=O)O[C@H]1C(=O)[C@@]2(C)[C@H]([C@H](OC(=O)c3ccccc3)[C@]3(O)C[C@H](OC(=O)[C@H](O)[C@@H](NC(=O)c4ccccc4)c4ccccc4)C(C)=C1C3(C)C)[C@]1(OC(C)=O)CO[C@@H]1C[C@@H]2O [Paclitaxel] (first compound max 1 µM, 7x7, partner max 3 µM) | 0.102 | 0.0064 | -0.0057 | 0.0953 | 0.0195 | -0.0033 | 0.0898 | -0.079 | 0.0129 | 0.0224 | – | – | – | – | – | – | – | – | – | –
Cc1cc2ncnn2cc1Nc1ncc2c(n1)n(C1CCOCC1)c(=O)n2C [AZD7648] + COc1cc([C@@H]2c3cc4c(cc3[C@@H](O[C@@H]3O[C@@H]5CO[C@@H](C)O[C@H]5[C@H](O)[C@H]3O)[C@H]3COC(=O)[C@H]23)OCO4)cc(OC)c1O [Etoposide] (first compound max 10 µM, 7x7, partner max 10 µM) | 0.0729 | 0.05 | 0.191 | 0.045 | 0.0187 | 0.017 | -0.0295 | 0.0522 | 0.0385 | 0.0212 | – | – | – | – | – | – | – | – | – | –
N#Cc1cnc(Nc2cc(NC[C@H]3CNCCO3)c(C(F)(F)F)cn2)cn1 [SRA737] + Nc1ccn([C@@H]2O[C@H](CO)[C@@H](O)C2(F)F)c(=O)n1 [Gemcitabine] (first compound max 10 µM, 7x7, partner max 0.3 µM) | 0.0556 | 0.124 | 0.0316 | 0.019 | -0.0589 | -0.0036 | 0.0489 | 0.0707 | 0.114 | 0.0224 | – | – | – | – | – | – | – | – | – | –
N#Cc1cnc(Nc2cc(NC[C@H]3CNCCO3)c(C(F)(F)F)cn2)cn1 [SRA737] + CCc1c2c(nc3ccc(O)cc13)-c1cc3c(c(=O)n1C2)COC(=O)[C@]3(O)CC [SN-38] (first compound max 10 µM, 7x7, partner max 0.3 µM) | 0.0777 | 0.0599 | -0.0375 | 0.0364 | 0.0241 | -0.0583 | 0.107 | 0.0148 | 0.157 | -0.0191 | – | – | – | – | – | – | – | – | – | –
